Each structure is given as a SMILES string. Activity calls are given as the source filed them. The rule behind the calls is not given here.

The data set deals with CCRIS mutagenicity, Ames/micronucleus/aberration tests. In words: CCRIS mutagenicity studies.
Where [1] appears, read: Test System: AMES SALMONELLA TYPHIMURIUM, Strain/Indicator: TA98, Metabolic Activation: RAT, LIVER, S-9, AROCLOR 1254, Method: STANDARD PLATE.
[2] abbreviates: Test System: AMES SALMONELLA TYPHIMURIUM, Strain/Indicator: TA98, Metabolic Activation: NONE, Method: PREINCUBATION
The mark [3] stands for this setting: Test System: AMES SALMONELLA TYPHIMURIUM, Strain/Indicator: TA100, Metabolic Activation: NONE, Method: PREINCUBATION

For `O/N=C/c1ccncc1`, the mutagenic call (Test System: AMES SALMONELLA TYPHIMURIUM, Strain/Indicator: TA102, Metabolic Activation: RAT, LIVER, S-9, PHENOBARBITAL AND 5,6-BENZOFLAVONE, Method: STANDARD PLATE) is “inactive; negative”; the mutagenic call (Test System: AMES SALMONELLA TYPHIMURIUM, Strain/Indicator: TA2638, Metabolic Activation: RAT, LIVER, S-9, PHENOBARBITAL AND 5,6-BENZOFLAVONE, Method: STANDARD PLATE) is “inactive; negative”; the mutagenic call (Test System: E. COLI, Strain/Indicator: WP2 (PKM101), Metabolic Activation: RAT, LIVER, S-9, PHENOBARBITAL AND 5,6-BENZOFLAVONE, Method: STANDARD PLATE) was “inactive; negative”; the mutagenic call (Test System: E. COLI, Strain/Indicator: WP2 UVRA (PKM101), Metabolic Activation: RAT, LIVER, S-9, PHENOBARBITAL AND 5,6-BENZOFLAVONE, Method: STANDARD PLATE) is “active; positive”.
Consider `CCN(C(C)=O)c1ccc2c(c1)Cc1ccccc1-2`, for which the mutagenic call under setting [1] was “active; positive”.
With `ClC1=C(Cl)[C@]2(Cl)C3C(Cl)C(Cl)CC3[C@@]1(Cl)C2(Cl)Cl` (stereo partly drawn), the mutagenic call (Test System: AMES SALMONELLA TYPHIMURIUM, Strain/Indicator: TA100, Metabolic Activation: NONE, Method: DESICCATOR) was “active; positive”.
With `C=CC(=O)OCCCCCCOC(=O)C=C`, the mutagenic call is, setting by setting: (Test System: AMES SALMONELLA TYPHIMURIUM, Strain/Indicator: TA97, Metabolic Activation: HAMSTER, LIVER, S-9, AROCLOR 1254 (10%), Method: PREINCUBATION) “inactive; negative”; (Test System: AMES SALMONELLA TYPHIMURIUM, Strain/Indicator: TA97, Metabolic Activation: HAMSTER, LIVER, S-9, AROCLOR 1254 (30%), Method: PREINCUBATION) “inactive; negative”; (Test System: AMES SALMONELLA TYPHIMURIUM, Strain/Indicator: TA97, Metabolic Activation: NONE, Method: PREINCUBATION) “inactive; negative”; (Test System: AMES SALMONELLA TYPHIMURIUM, Strain/Indicator: TA97, Metabolic Activation: RAT, LIVER, S-9, AROCLOR 1254 (10%), Method: PREINCUBATION) “inactive; negative”; (Test System: AMES SALMONELLA TYPHIMURIUM, Strain/Indicator: TA97, Metabolic Activation: RAT, LIVER, S-9, AROCLOR 1254 (30%), Method: PREINCUBATION) “inactive; negative”; (Test System: AMES SALMONELLA TYPHIMURIUM, Strain/Indicator: TA98, Metabolic Activation: HAMSTER, LIVER, S-9, AROCLOR 1254 (10%), Method: PREINCUBATION) “inactive; negative”. The mutagenic call reads like this: (Test System: AMES SALMONELLA TYPHIMURIUM, Strain/Indicator: TA98, Metabolic Activation: HAMSTER, LIVER, S-9, AROCLOR 1254 (30%), Method: PREINCUBATION) “inactive; negative”; under setting [2], “inactive; negative”; (Test System: AMES SALMONELLA TYPHIMURIUM, Strain/Indicator: TA98, Metabolic Activation: NONE, Method: STANDARD PLATE) “inactive; negative”; (Test System: AMES SALMONELLA TYPHIMURIUM, Strain/Indicator: TA98, Metabolic Activation: RAT, LIVER, S-9, AROCLOR 1254 (10%), Method: PREINCUBATION) “inactive; negative”; (Test System: AMES SALMONELLA TYPHIMURIUM, Strain/Indicator: TA98, Metabolic Activation: RAT, LIVER, S-9, AROCLOR 1254 (30%), Method: PREINCUBATION) “inactive; negative”; under setting [1], “inactive; negative”. For the same molecule, the mutagenic call is, setting by setting: (Test System: AMES SALMONELLA TYPHIMURIUM, Strain/Indicator: TA98, Metabolic Activation: RAT, LIVER, S-9, SODIUM PHENOBARBITAL, Method: STANDARD PLATE) “inactive; negative”; (Test System: AMES SALMONELLA TYPHIMURIUM, Strain/Indicator: TA100, Metabolic Activation: HAMSTER, LIVER, S-9, AROCLOR 1254 (10%), Method: PREINCUBATION) “inactive; negative”; (Test System: AMES SALMONELLA TYPHIMURIUM, Strain/Indicator: TA100, Metabolic Activation: HAMSTER, LIVER, S-9, AROCLOR 1254 (30%), Method: PREINCUBATION) “inactive; negative”; under setting [3], “inactive; negative”; (Test System: AMES SALMONELLA TYPHIMURIUM, Strain/Indicator: TA100, Metabolic Activation: NONE, Method: STANDARD PLATE) “inactive; negative”; (Test System: AMES SALMONELLA TYPHIMURIUM, Strain/Indicator: TA100, Metabolic Activation: RAT, LIVER, S-9, AROCLOR 1254 (10%), Method: PREINCUBATION) “inactive; negative”. The mutagenic call reads like this: (Test System: AMES SALMONELLA TYPHIMURIUM, Strain/Indicator: TA100, Metabolic Activation: RAT, LIVER, S-9, AROCLOR 1254 (30%), Method: PREINCUBATION) “inactive; negative”; (Test System: AMES SALMONELLA TYPHIMURIUM, Strain/Indicator: TA100, Metabolic Activation: RAT, LIVER, S-9, AROCLOR 1254, Method: STANDARD PLATE) “inactive; negative”; (Test System: AMES SALMONELLA TYPHIMURIUM, Strain/Indicator: TA100, Metabolic Activation: RAT, LIVER, S-9, SODIUM PHENOBARBITAL, Method: STANDARD PLATE) “inactive; negative”; (Test System: AMES SALMONELLA TYPHIMURIUM, Strain/Indicator: TA1535, Metabolic Activation: HAMSTER, LIVER, S-9, AROCLOR 1254 (10%), Method: PREINCUBATION) “inactive; negative”; (Test System: AMES SALMONELLA TYPHIMURIUM, Strain/Indicator: TA1535, Metabolic Activation: HAMSTER, LIVER, S-9, AROCLOR 1254 (30%), Method: PREINCUBATION) “inactive; negative”; (Test System: AMES SALMONELLA TYPHIMURIUM, Strain/Indicator: TA1535, Metabolic Activation: NONE, Method: PREINCUBATION) “inactive; negative”. The mutagenic call runs as follows: (Test System: AMES SALMONELLA TYPHIMURIUM, Strain/Indicator: TA1535, Metabolic Activation: NONE, Method: STANDARD PLATE) “inactive; negative”; (Test System: AMES SALMONELLA TYPHIMURIUM, Strain/Indicator: TA1535, Metabolic Activation: RAT, LIVER, S-9, AROCLOR 1254 (10%), Method: PREINCUBATION) “inactive; negative”; (Test System: AMES SALMONELLA TYPHIMURIUM, Strain/Indicator: TA1535, Metabolic Activation: RAT, LIVER, S-9, AROCLOR 1254 (30%), Method: PREINCUBATION) “inactive; negative”; (Test System: AMES SALMONELLA TYPHIMURIUM, Strain/Indicator: TA1535, Metabolic Activation: RAT, LIVER, S-9, AROCLOR 1254, Method: STANDARD PLATE) “inactive; negative”; (Test System: AMES SALMONELLA TYPHIMURIUM, Strain/Indicator: TA1535, Metabolic Activation: RAT, LIVER, S-9, SODIUM PHENOBARBITAL, Method: STANDARD PLATE) “inactive; negative”; (Test System: AMES SALMONELLA TYPHIMURIUM, Strain/Indicator: TA1537, Metabolic Activation: HAMSTER, LIVER, S-9, AROCLOR 1254 (10%), Method: PREINCUBATION) “inactive; negative”. Also, the mutagenic call reads like this: (Test System: AMES SALMONELLA TYPHIMURIUM, Strain/Indicator: TA1537, Metabolic Activation: NONE, Method: PREINCUBATION) “inactive; negative”; (Test System: AMES SALMONELLA TYPHIMURIUM, Strain/Indicator: TA1537, Metabolic Activation: NONE, Method: STANDARD PLATE) “inactive; negative”; (Test System: AMES SALMONELLA TYPHIMURIUM, Strain/Indicator: TA1537, Metabolic Activation: RAT, LIVER, S-9, AROCLOR 1254 (10%), Method: PREINCUBATION) “inactive; negative”; (Test System: AMES SALMONELLA TYPHIMURIUM, Strain/Indicator: TA1537, Metabolic Activation: RAT, LIVER, S-9, AROCLOR 1254, Method: STANDARD PLATE) “inactive; negative”; (Test System: AMES SALMONELLA TYPHIMURIUM, Strain/Indicator: TA1537, Metabolic Activation: RAT, LIVER, S-9, SODIUM PHENOBARBITAL, Method: STANDARD PLATE) “inactive; negative”; (Test System: AMES SALMONELLA TYPHIMURIUM, Strain/Indicator: TA1538, Metabolic Activation: NONE, Method: STANDARD PLATE) “inactive; negative”. Also, the mutagenic call was “inactive; negative” (Test System: AMES SALMONELLA TYPHIMURIUM, Strain/Indicator: TA1538, Metabolic Activation: RAT, LIVER, S-9, AROCLOR 1254, Method: STANDARD PLATE) and “inactive; negative” (Test System: AMES SALMONELLA TYPHIMURIUM, Strain/Indicator: TA1538, Metabolic Activation: RAT, LIVER, S-9, SODIUM PHENOBARBITAL, Method: STANDARD PLATE).
Turning to `OCc1ccc(-c2nccc3c2[nH]c2ccccc23)o1`, the mutagenic call under setting [3] is “active; positive”.
`O=[N+]([O-])c1cccc(CO)c1`: the mutagenic call reads like this: under setting [2], “inactive; negative”; under setting [3], “inactive; negative”; (Test System: AMES SALMONELLA TYPHIMURIUM, Strain/Indicator: TA100, Metabolic Activation: RAT, LIVER, S-9, AROCLOR 1254, Method: PREINCUBATION) “inactive; negative”.

(Values after PubChem BioAssay AID1259407 (Chemical Carcinogenesis Research Information System (CCRIS), 2018).)
